Reference: PubChem BioAssay AID1919013 (Molecular Pharmacology Branch, DTP, NCI, 2023)

Test system: LG0703-F498-PDC complex spheroid growth
Test: Anticancer human tumor LG0703-F498-PDC patient-derived lung adenocarcinoma cell line growth inhibition [AhR]
Conditions: for IC50: curve of first compound; for viability, T/C: stronger effect = lower value
Procedure, shortened: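 Agents were dosed in half-log steps down from roughly clinical Cmax, or from 10 microM where Cmax was unknown, alone and with AhR antagonists. Read-out: percent test/control growth of tumor spheroids containing HUVEC and MSC stromal cells.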
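Also: luminescence taken as a proxy for viable cell amount.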
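For viability, T/C in this document: percent of DMSO vehicle control where 100% means growth equal to vehicle.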

CC(C)c1c(-c2ccccc2)nc2c(C#N)c[nH]n2c1=O + Cc1cncc(-c2nc(NCCc3c[nH]c4ccccc34)c3ncn(C(C)C)c3n2)c1
IC50 (second compound 0.1 µM): > 10 µM | IC50 (second compound 0.316 µM): > 10 µM | IC50 (second compound 1 µM): > 10 µM | IC50 (second compound 3.16 µM): < 0.0316 µM | IC50 (second compound 10 µM): < 0.0316 µM | viability, T/C (second compound 0.1 µM, first compound 0.0316 µM): 108% | viability, T/C (second compound 0.1 µM, first compound 0.1 µM): 101% | viability, T/C (second compound 0.1 µM, first compound 0.316 µM): 87.2% | viability, T/C (second compound 0.1 µM, first compound 1 µM): 101% | viability, T/C (second compound 0.1 µM, first compound 3.16 µM): 89.1% | viability, T/C (second compound 0.1 µM, first compound 10 µM): 81.6% | viability, T/C (second compound 0.316 µM, first compound 0.0316 µM): 97.3% | viability, T/C (second compound 0.316 µM, first compound 0.1 µM): 93.4% | viability, T/C (second compound 0.316 µM, first compound 0.316 µM): 96.5% | viability, T/C (second compound 0.316 µM, first compound 1 µM): 95.8% | viability, T/C (second compound 0.316 µM, first compound 3.16 µM): 103% | viability, T/C (second compound 0.316 µM, first compound 10 µM): 79.5% | viability, T/C (second compound 1 µM, first compound 0.0316 µM): 106% | viability, T/C (second compound 1 µM, first compound 0.1 µM): 119% | viability, T/C (second compound 1 µM, first compound 0.316 µM): 101% | viability, T/C (second compound 1 µM, first compound 1 µM): 91.6% | viability, T/C (second compound 1 µM, first compound 3.16 µM): 91.9% | viability, T/C (second compound 1 µM, first compound 10 µM): 89.6% | viability, T/C (second compound 3.16 µM, first compound 0.0316 µM): 39.1% | viability, T/C (second compound 3.16 µM, first compound 0.1 µM): 40% | viability, T/C (second compound 3.16 µM, first compound 0.316 µM): 36.9% | viability, T/C (second compound 3.16 µM, first compound 1 µM): 31.7% | viability, T/C (second compound 3.16 µM, first compound 3.16 µM): 29.9% | viability, T/C (second compound 3.16 µM, first compound 10 µM): 33% | viability, T/C (second compound 10 µM, first compound 0.0316 µM): 1.38% | viability, T/C (second compound 10 µM, first compound 0.1 µM): 1.01% | viability, T/C (second compound 10 µM, first compound 0.316 µM): 1.64% | viability, T/C (second compound 10 µM, first compound 1 µM): 2.22% | viability, T/C (second compound 10 µM, first compound 3.16 µM): 0.57% | viability, T/C (second compound 10 µM, first compound 10 µM): 1.89%
